Test system: STING pathway
Assay: STING reporter assay: luciferase reporter activity in THP1-Dual KO-IFNAR2 cells activated with 2'3'cGAMP
Type: cell-based
Settings: Homo sapiens, 2'3'cGAMP 15 μM, 24 h, read-out: hSTING EC50
Procedure: STING pathway activation by the compounds described herein was measured using THP1-Dual™ cells (KO-IFNAR2).
THP1-Dual™ KO-IFNAR2 Cells (obtained from invivogen) were maintained in RPMI, 10% FCS, 5 ml P/S, 2 mM L-glut, 10 mM Hepes, and 1 mM sodium pyruvate. Compounds were spotted in empty 384 well tissue culture plates (Greiner 781182) by Echo for a final concentration of 0.0017-100 μM. Cells were plated into the TC plates at 40 μL per well, 2×10E6 cells/mL. For activation with STING ligand, 2′3′cGAMP (MW 718.38, obtained from Invivogen), was prepared in Optimem media.
The following solutions were prepared for each 1×384 plate: • Solution A: 2 mL Optimem with one of the following stimuli: • 60 μL of 10 mM 2′3′cGAMP→150 μM stock • Solution B: 2 mL Optimem with 60 μL Lipofectamine 2000→Incubate 5 min at RT
2 mL of solution A and 2 ml Solution B was mixed and incubated for 20 min at room temperature (RT). 20 μL of transfection solution (A+B) was added on top of the plated cells, with a final 2′3′cGAMP concentration of 15 μM. The plates were then centrifuged immediately at 340 g for 1 minute, after which they were incubated at 37° C., 5% CO2,>98% humidity for 24 h. Luciferase reporter activity was then measured. EC50 values were calculated by using standard methods known in the art.
Luciferase reporter assay: 10 μL of supernatant from the assay was transferred to white 384-plate with flat bottom and squared wells. One pouch of QUANTI-Luc™ Plus was dissolved in 25 mL of water. 100 μL of QLC Stabilizer per 25 mL of QUANTI-Luc™ Plus solution was added. 50 μL of QUANTI-Luc™ Plus/QLC solution per well was then added. Luminescence was measured on a Platereader (e.g., Spectramax I3X (Molecular Devices GF3637001)).
Luciferase reporter activity was then measured. EC50 values were calculated by using standard methods known in the art.

| Structure (SMILES) | EC50 [nM] |
| --- | --- |
| CCCCOc1ccc(C(=O)Nc2c[nH]c3cc(F)c(F)cc23)cc1 [Compound 132, 4-butoxy-N-(5,6-difluoro-1H-indol-3-yl)benzamide] | 200 to 1000 |
| O=C(Nc1c[nH]c2cc(F)c(F)cc12)c1ccc(OCC(F)(F)F)c(F)c1 [Compound 134, N-(5,6-difluoro-1H-indol-3-yl)-3-fluoro-4-(2,2,2-trifluoroethoxy)benzamide] | 200 to 1000 |
| O=C(Nc1c[nH]c2cc(F)c(F)cc12)c1cnc(N2CC(F)(F)C2)c(Cl)c1 [Compound 137, 5-chloro-N-(5,6-difluoro-1H-indol-3-yl)-6-(3,3-difluoroazetidin-1-yl)nicotinamide] | 200 to 1000 |
| O=C(Nc1c[nH]c2cc(F)c(F)cc12)c1ccc(OCCCC(F)(F)F)nc1 [Compound 138, N-(5,6-difluoro-1H-indol-3-yl)-6-(4,4,4-trifluorobutoxy)nicotinamide] | 200 to 1000 |
| O=C(Nc1c[nH]c2cc(F)c(F)cc12)c1ccc(OCCCC(F)(F)F)cn1 [Compound 139, N-(5,6-difluoro-1H-indol-3-yl)-5-(4,4,4-trifluorobutoxy)picolinamide] | 200 to 1000 |
| O=C(Nc1c[nH]c2cc(F)c(F)cc12)c1cnc(OCCC(F)(F)F)c(F)c1 [Compound 140, N-(5,6-difluoro-1H-indol-3-yl)-5-fluoro-6-(3,3,3-trifluoropropoxy)nicotinamide] | 200 to 1000 |
| O=C(Nc1c[nH]c2cc(F)c(F)cc12)c1ccc(OCCCC(F)(F)F)c(F)c1 [Compound 142, N-(5,6-difluoro-1H-indol-3-yl)-3-fluoro-4-(4,4,4-trifluorobutoxy)benzamide] | 200 to 1000 |
| COc1ccc2[nH]cc(NC(=O)c3ccc(OCCCC(F)(F)F)c(F)c3)c2n1 [Compound 143, 3-fluoro-N-(5-methoxy-1H-pyrrolo[3,2-b]pyridin-3-yl)-4-(4,4,4-trifluorobutoxy)benzamide] | 1000 to 5000 |
| O=C(Nc1c[nH]c2ncc(F)cc12)c1ccc(OCCCC(F)(F)F)c(F)c1 [Compound 144, 3-fluoro-N-(5-fluoro-1H-pyrrolo[2,3-b]pyridin-3-yl)-4-(4,4,4-trifluorobutoxy)benzamide] | 1000 to 5000 |
| N#Cc1ccc2[nH]cc(NC(=O)c3ccc(OCCCC(F)(F)F)c(F)c3)c2c1 [Compound 145, N-(5-cyano-1H-indol-3-yl)-3-fluoro-4-(4,4,4-trifluorobutoxy)benzamide] | 200 to 1000 |
| O=C(Nc1c[nH]c2ccc(F)cc12)c1ccc(OCCCC(F)(F)F)c(F)c1 [Compound 146, 3-fluoro-N-(5-fluoro-1H-indol-3-yl)-4-(4,4,4-trifluorobutoxy)benzamide] | 40 to 200 |
| O=C(Nc1c[nH]c2cc(F)c(F)cc12)c1cnc(OCCCC(F)(F)F)cn1 [Compound 148, N-(5,6-difluoro-1H-indol-3-yl)-5-(4,4,4-trifluorobutoxy)pyrazine-2-carboxamide] | 200 to 1000 |
| O=C(Nc1c[nH]c2cc(F)c(F)cc12)c1ccc(OC2CC(F)(F)C2)c(F)c1 [Compound 149, N-(5,6-difluoro-1H-indol-3-yl)-4-(3,3-difluorocyclobutoxy)-3-fluorobenzamide] | 200 to 1000 |
| N#Cc1cc(C(=O)Nc2c[nH]c3cc(F)c(F)cc23)ccc1OCCCC(F)(F)F [Compound 150, 3-cyano-N-(5,6-difluoro-1H-indol-3-yl)-4-(4,4,4-trifluorobutoxy)benzamide] | 40 to 200 |
| O=C(Nc1c[nH]c2cc(F)c(F)cc12)c1ccc(OCCCC(F)(F)F)c(Cl)c1 [Compound 151, 3-chloro-N-(5,6-difluoro-1H-indol-3-yl)-4-(4,4,4-trifluorobutoxy)benzamide] | 200 to 1000 |
| O=C(Nc1c[nH]c2ccc(Cl)cc12)c1ccc(OCCCC(F)(F)F)c(F)c1 [Compound 153, N-(5-chloro-1H-indol-3-yl)-3-fluoro-4-(4,4,4-trifluorobutoxy)benzamide] | 200 to 1000 |
| O=C(Nc1c[nH]c2cc(F)c(F)cc12)c1cnc(N2CCC(F)(F)CC2)c(F)c1 [Compound 154, N-(5,6-difluoro-1H-indol-3-yl)-6-(4,4-difluoropiperidin-1-yl)-5-fluoronicotinamide] | 200 to 1000 |
| Cc1cc(C(=O)Nc2c[nH]c3cc(F)c(F)cc23)ccc1OCCCC(F)(F)F [Compound 155, N-(5,6-difluoro-1H-indol-3-yl)-3-methyl-4-(4,4,4-trifluorobutoxy)benzamide] | 40 to 200 |
| O=C(Nc1c[nH]c2cc(F)c(F)cc12)c1cnc(N2CCC(F)(F)CC2)c(Cl)c1 [Compound 156, 5-chloro-N-(5,6-difluoro-1H-indol-3-yl)-6-(4,4-difluoropiperidin-1-yl)nicotinamide] | 200 to 1000 |
| O=C(Nc1c[nH]c2cc(F)c(F)cc12)c1ccc(N2CCC(F)(F)CC2)nc1 [Compound 159, N-(5,6-difluoro-1H-indol-3-yl)-6-(4,4-difluoropiperidin-1-yl)nicotinamide] | 40 to 200 |
| O=C(Nc1c[nH]c2cc(F)c(F)cc12)c1ccc(OCCC(F)(F)F)c(F)c1 [Compound 160, N-(5,6-difluoro-1H-indol-3-yl)-3-fluoro-4-(3,3,3-trifluoropropoxy)benzamide] | 40 to 200 |

Second part, the molecule after the results:

| EC50 [nM] | Structure (SMILES) |
| --- | --- |
| 1000 to 5000 | O=C(Nc1c[nH]c2cc(F)c(F)cc12)c1ccc(OCCN2CCCCC2)cc1 [Compound 129, N-(5,6-difluoro-1H-indol-3-yl)-4-[2-(piperidin-1-yl)ethoxy]benzamide] |
| 200 to 1000 | O=C(Nc1c[nH]c2cc(F)c(F)cc12)c1ccc(OCC2CC2)cc1 [Compound 130, 4-(cyclopropylmethoxy)-N-(5,6-difluoro-1H-indol-3-yl)benzamide] |
| 1000 to 5000 | O=C(Nc1c[nH]c2cc(F)c(F)cc12)c1cccc(OCc2ccccc2)c1 [Compound 131, 3-(benzyloxy)-N-(5,6-difluoro-1H-indol-3-yl)benzamide] |
| 200 to 1000 | O=C(Nc1c[nH]c2cc(F)c(F)cc12)c1ccc(Oc2ccc(C(F)(F)F)cn2)cc1 [Compound 133, N-(5,6-difluoro-1H-indol-3-yl)-4-{[5-(trifluoromethyl)pyridin-2-yl]oxy}benzamide] |
| 200 to 1000 | O=C(Nc1c[nH]c2cc(F)c(F)cc12)c1ccc(OC(F)(F)F)cc1 [Compound 135, N-(5,6-difluoro-1H-indol-3-yl)-4-(trifluoromethoxy)benzamide] |
| 200 to 1000 | O=C(Nc1c[nH]c2cc(F)c(F)cc12)c1ccc(OCc2ccccc2)cc1 [Compound 136, 4-(benzyloxy)-N-(5,6-difluoro-1H-indol-3-yl)benzamide] |
| 200 to 1000 | O=C(Nc1c[nH]c2cc(F)c(F)cc12)c1ccc(OCCC(F)(F)F)cc1 [Compound 141, N-(5,6-difluoro-1H-indol-3-yl)-4-(3,3,3-trifluoropropoxy)benzamide] |
| 200 to 1000 | CCOc1ccc(C(=O)Nc2c[nH]c3cc(F)c(F)cc23)cc1 [Compound 147, N-(5,6-difluoro-1H-indol-3-yl)-4-ethoxybenzamide] |
| 200 to 1000 | O=C(Nc1c[nH]c2cc(F)c(F)cc12)c1ccc(OCC(F)(F)F)cc1 [Compound 152, N-(5,6-difluoro-1H-indol-3-yl)-4-(2,2,2-trifluoroethoxy)benzamide] |
| 200 to 1000 | COCCOc1ccc(C(=O)Nc2c[nH]c3cc(F)c(F)cc23)cn1 [Compound 157, N-(5,6-difluoro-1H-indol-3-yl)-6-(2-methoxyethoxy)nicotinamide] |
| 40 to 200 | O=C(Nc1c[nH]c2cc(F)c(F)cc12)c1ccc(C2CCC(F)(F)CC2)cc1 [Compound 158, N-(5,6-difluoro-1H-indol-3-yl)-4-(4,4-difluorocyclohexyl)benzamide] |

Reference: patent US20230250106A1, “COMPOUNDS AND COMPOSITIONS FOR TREATING CONDITIONS ASSOCIATED WITH STING ACTIVITY” (IFM Due, Inc., priority 2020, published 2023)
